The values that follow are results of earlier work, collected in patent US20110052648A1, “ORAL MODIFIED-RELEASE FORMULATIONS CONTAINING THIAZEPINES” (priority 2008, published 2011).

For the molecule `OCCOCCN1CCN(C2=Nc3ccccc3Sc3ccccc32)CC1` [Quetiapine, 11-[4-[2-(2-hydroxyethoxy)ethyl]-1-piperazinyl]dibenzo[b,f][1,4]-thiazepine], the solubility in water entry is “moderately soluble”.
